Measured values taken from patent publication US8168860B2, “Compositions and methods for the modification of physiological responses in plants” (Rohm and Haas Company, priority 2007, dated 2012).

Key:
[1] = system: transformed tobacco plants; test: Triple response assay, shoot length of transformed tobacco shoots in dark with ethylene; format: in vivo; settings: tobacco plant 185-3 (VGE), induced, 10 μM inducer, ethylene about 10 ppm, 18 days
[2] = system: tomato seedlings (WT, p1002-18, p1003-16); test: Tomato seedling growth on 20 μM inducer and various levels of ACC; format: in vivo; settings: 20 μM inducer; for Hypocotyl (mm) / Root (mm): 14 day old seedlings
[3] = system: tomato seedlings p1002-18-3; test: Transient induction: tomato seedlings on 20 μM ACC, inducer removed after 2-14 days; format: in vivo; settings: for Hypocotyl (mm) / Root (mm) / Hypocotyl Percent (%) / Root Percent (%): p1002-18-3 tomato; for Hypocotyl (mm) / Root (mm): dark, 14 day old seedlings
Experimental: After 14 days growth in the dark, hypocotyls and roots were measured to assess ethylene insensitivity. Ethylene insensitive seedlings would be expected to have longer hypocotyls and roots. […] Thus, root and hypocotyl growth of the reversed seedlings should be intermediate between the sensitive and insensitive seedlings.

ACC oxidase = ACC oxidase expression in excised corn stalk sheath tissue, quantitative PCR; format: cell-based; settings: for ACC Oxidase Expression (relative): normalized to 0 inducer/0 ACC; for AVG ACO Expression: average of corn lines
Experimental: Corn plants were transformed using the plasmids for Example 1 by microparticle bombardment. Putative transformants were selected using either actinonin or bialaphos and confirmed by PCR analysis. Positive transformants were backcrossed to inbred B73 to increase vigor. Transgenic corn plants produced as described above were tested for modulation of ethylene sensitivity. Modulation of ethylene sensitivity was determined at the molecular level by exposing plants to ethylene and measuring the change in induction of ethylene-induced genes.
Transgenic corn plants produced as described above were tested for modulation of ethylene sensitivity. Modulation of ethylene sensitivity was determined at the molecular level by exposing plants to ACC, the precursor of ethylene and measuring the change in induction of ethylene-induced genes. Stalk sheath tissue was excised from transgenic T0 corn plants growing in a green house and used in an in vitro bioassay. Excised tissue was treated with either water or 20 μM inducer for 2 days to induce expression of the ethylene insensitive etr1-1 transgene. Following the 2 day induction period, the tissue was treated for one day with 0, 1 or 10 μM ACC to produce ethylene and then harvested. Harvested tissue was immediately placed in RNAlater (Ambion). Total RNA was prepared from the tissue using MagMAX-96 Total RNA Isolation Kit (Ambion). Induction of an ethylene inducible gene (ACC oxidase) was measured using quantitative PCR on an Applied Biosystems 7900 HT Fast Real-Time PCR system (ABI). TaqMan Assay Kit (ABI) was used for reverse transcriptase (RT) and PCR using manufacturer recommended protocols. Corn 18s was used as an internal control to normalize expression for each sample.
Sequences for the primers and probes were as follows: […]
In order to determine gene expression, ACC oxidase expression in the 0 μM inducer plus 0 μM ACC control treatment was normalized for each respective corn line.

[4] = 10 μM inducer, 2 days with inducer, 12 days without, 20 μM ACC
[5] = 10 μM inducer, 2 days with inducer, 12 days without, relative to 14 days with inducer
[6] = 10 μM inducer, 4 days with inducer, 10 days without, 20 μM ACC
[7] = 10 μM inducer, 4 days with inducer, 10 days without, relative to 14 days with inducer
[8] = 10 μM inducer, 6 days with inducer, 8 days without, 20 μM ACC
[9] = 10 μM inducer, 6 days with inducer, 8 days without, relative to 14 days with inducer
[10] = 10 μM inducer, 8 days with inducer, 6 days without, 20 μM ACC
[11] = 10 μM inducer, 8 days with inducer, 6 days without, relative to 14 days with inducer
[12] = 10 μM inducer, 14 days with inducer, 0 days without (reference)
[13] = 10 μM inducer, 14 days with inducer, 0 days without, 20 μM ACC

CCC(N(NC(=O)c1ccc2c(c1C)O[C@@H](CO)CO2)C(=O)c1cc(C)cc(C)c1)C(C)(C)C (stereo partly drawn) [inducer, 3,5 Dimethyl-benzoic acid N-(1-ethyl-2,2-dimethyl-propyl)-N′-(3S-hydroxymethyl-5-methyl-2,3-dihydro-benzo[1,4]dioxine-6-carbonyl)hydrazide]
Shoot Length Avg (cm) [1]: 5.6 cm
Hypocotyl (mm) ([2]; WT tomato, 5 μM Ag): 41.4 ± 8.20 mm
Root (mm) ([2]; WT tomato, 5 μM Ag): 22.3 ± 5.66 mm
Hypocotyl (mm) ([2]; WT tomato, ACC 0 μM): 36.4 ± 9.44 mm
Root (mm) ([2]; WT tomato, ACC 0 μM): 28.8 ± 6.26 mm
Hypocotyl (mm) ([2]; WT tomato, ACC 1 μM): 25.9 ± 12.7 mm
Root (mm) ([2]; WT tomato, ACC 1 μM): 14.4 ± 9.42 mm
Hypocotyl (mm) ([2]; WT tomato, ACC 2.5 μM): 11.3 ± 6.25 mm
Root (mm) ([2]; WT tomato, ACC 2.5 μM): 12.3 ± 9.41 mm
Hypocotyl (mm) ([2]; WT tomato, ACC 5 μM): 8.50 ± 4.35 mm
Root (mm) ([2]; WT tomato, ACC 5 μM): 10.4 ± 8.73 mm
Hypocotyl (mm) ([2]; WT tomato, ACC 10 μM): 7.71 ± 1.20 mm
Root (mm) ([2]; WT tomato, ACC 10 μM): 13.1 ± 10.8 mm
Hypocotyl (mm) ([2]; WT tomato, ACC 20 μM): 3.21 ± 1.19 mm
Root (mm) ([2]; WT tomato, ACC 20 μM): 11.2 ± 9.40 mm
Hypocotyl (mm) ([2]; p1002-18 tomato, 5 μM Ag): 38.2 ± 6.85 mm
Root (mm) ([2]; p1002-18 tomato, 5 μM Ag): 31.6 ± 5.68 mm
Hypocotyl (mm) ([2]; p1002-18 tomato, ACC 0 μM): 40.7 ± 9.50 mm
Root (mm) ([2]; p1002-18 tomato, ACC 0 μM): 30.9 ± 7.14 mm
Hypocotyl (mm) ([2]; p1002-18 tomato, ACC 1 μM): 28.4 ± 18.0 mm
Root (mm) ([2]; p1002-18 tomato, ACC 1 μM): 24.7 ± 7.53 mm
Hypocotyl (mm) ([2]; p1002-18 tomato, ACC 2.5 μM): 29.4 ± 15.0 mm
Root (mm) ([2]; p1002-18 tomato, ACC 2.5 μM): 25.8 ± 8.50 mm
Hypocotyl (mm) ([2]; p1002-18 tomato, ACC 5 μM): 27.3 ± 9.03 mm
Root (mm) ([2]; p1002-18 tomato, ACC 5 μM): 24.0 ± 7.77 mm
Hypocotyl (mm) ([2]; p1002-18 tomato, ACC 10 μM): 28.0 ± 14.1 mm
Root (mm) ([2]; p1002-18 tomato, ACC 10 μM): 24.8 ± 6.03 mm
Hypocotyl (mm) ([2]; p1002-18 tomato, ACC 20 μM): 26.5 ± 15.1 mm
Root (mm) ([2]; p1002-18 tomato, ACC 20 μM): 24.1 ± 3.98 mm
Hypocotyl (mm) ([2]; p1003-16 tomato, 5 μM Ag): 36.3 ± 9.08 mm
Root (mm) ([2]; p1003-16 tomato, 5 μM Ag): 23.8 ± 4.92 mm
Hypocotyl (mm) ([2]; p1003-16 tomato, ACC 0 μM): 39.8 ± 17.1 mm
Root (mm) ([2]; p1003-16 tomato, ACC 0 μM): 18.7 ± 3.94 mm
Hypocotyl (mm) ([2]; p1003-16 tomato, ACC 1 μM): 39.3 ± 11.0 mm
Root (mm) ([2]; p1003-16 tomato, ACC 1 μM): 18.2 ± 716 mm
Hypocotyl (mm) ([2]; p1003-16 tomato, ACC 2.5 μM): 38.9 ± 18.2 mm
Root (mm) ([2]; p1003-16 tomato, ACC 2.5 μM): 12.9 ± 8.61 mm
Hypocotyl (mm) ([2]; p1003-16 tomato, ACC 5 μM): 33.0 ± 15.2 mm
Root (mm) ([2]; p1003-16 tomato, ACC 5 μM): 12.9 ± 9.36 mm
Hypocotyl (mm) ([2]; p1003-16 tomato, ACC 10 μM): 29.7 ± 18.8 mm
Root (mm) ([2]; p1003-16 tomato, ACC 10 μM): 12.7 ± 12.1 mm
Hypocotyl (mm) ([2]; p1003-16 tomato, ACC 20 μM): 24.3 ± 15.2 mm
Root (mm) ([2]; p1003-16 tomato, ACC 20 μM): 13.0 ± 7.92 mm
induction of ethylene insensitivity over ACC concentrations ([2]; tomato p1002 and p1003 line, ACC 1.0-20 μM): induction of ethylene insensitivity occurred across the range of ACC concentrations tested
Hypocotyl (mm) [3, 4]: 16.9 ± 4.30 mm
Root (mm) [3, 4]: 26.2 ± 15.3 mm
Hypocotyl Percent (%) [3, 5]: 63.8%
Root Percent (%) [3, 5]: 69.9%
Hypocotyl (mm) [3, 6]: 19.5 ± 7.52 mm
Root (mm) [3, 6]: 28.7 ± 14.7 mm
Hypocotyl Percent (%) [3, 7]: 73.6%
Root Percent (%) [3, 7]: 76.5%
Hypocotyl (mm) [3, 8]: 26.8 ± 6.27 mm
Root (mm) [3, 8]: 29.8 ± 9.61 mm
Hypocotyl Percent (%) [3, 9]: 101%
Root Percent (%) [3, 9]: 79.5%
Hypocotyl (mm) [3, 10]: 26.0 ± 10.3 mm
Root (mm) [3, 10]: 38.3 ± 9.15 mm
Hypocotyl Percent (%) [3, 11]: 98.1%
Root Percent (%) [3, 11]: 102%
Hypocotyl Percent (%) [3, 12]: 100%
Root Percent (%) [3, 12]: 100%
Hypocotyl (mm) [3, 13]: 26.5 ± 7.51 mm
Root (mm) [3, 13]: 37.5 ± 13.2 mm
duration of induction sufficient for a full state of ethylene insensitivity ([3]; tomato p1002 line, 10 μM inducer, 20 μM ACC): Six days was sufficient to induce a full state of ethylene insensitivity
reversal after removal of inducer ([3]; tomato p1002 line, induced for 2 or 4 days then removed from inducer, compared to non-induced control): showed return to a state of ethylene sensitivity
ACC Oxidase Expression (relative) (ACC oxidase; Corn Line 4.5, 20 μM inducer/0 ACC): 1.351
ACC Oxidase Expression (relative) (ACC oxidase; Corn Line 4.5, 20 μM inducer/1 μM ACC): 1.081
ACC Oxidase Expression (relative) (ACC oxidase; Corn Line 4.5, 20 μM inducer/10 μM ACC): 0.4184
ACC Oxidase Expression (relative) (ACC oxidase; Corn Line 4.6, 20 μM inducer/0 ACC): 1.148
ACC Oxidase Expression (relative) (ACC oxidase; Corn Line 4.6, 20 μM inducer/1 μM ACC): 0.7581
ACC Oxidase Expression (relative) (ACC oxidase; Corn Line 4.6, 20 μM inducer/10 μM ACC): 0.3348
ACC Oxidase Expression (relative) (ACC oxidase; Corn Line 4.7, 20 μM inducer/0 ACC): 0.7452
ACC Oxidase Expression (relative) (ACC oxidase; Corn Line 4.7, 20 μM inducer/1 μM ACC): 1.388
ACC Oxidase Expression (relative) (ACC oxidase; Corn Line 4.7, 20 μM inducer/10 μM ACC): 0.2557
ACC Oxidase Expression (relative) (ACC oxidase; Corn Line 10.2, 20 μM inducer/0 ACC): 1.378
ACC Oxidase Expression (relative) (ACC oxidase; Corn Line 10.2, 20 μM inducer/1 μM ACC): 0.4928
ACC Oxidase Expression (relative) (ACC oxidase; Corn Line 10.2, 20 μM inducer/10 μM ACC): 0.6761
ACC Oxidase Expression (relative) (ACC oxidase; Corn Line 10.4, 20 μM inducer/0 ACC): 0.3437
ACC Oxidase Expression (relative) (ACC oxidase; Corn Line 10.4, 20 μM inducer/1 μM ACC): 0.3591
ACC Oxidase Expression (relative) (ACC oxidase; Corn Line 10.4, 20 μM inducer/10 μM ACC): 1.821
ACC Oxidase Expression (relative) (ACC oxidase; Corn Line 10.5, 20 μM inducer/0 ACC): 0.6804
ACC Oxidase Expression (relative) (ACC oxidase; Corn Line 10.5, 20 μM inducer/1 μM ACC): 0.06813
ACC Oxidase Expression (relative) (ACC oxidase; Corn Line 10.5, 20 μM inducer/10 μM ACC): 0.1983
ACC Oxidase Expression (relative) (ACC oxidase; Corn Line B73, 20 μM inducer/0 ACC): 1.964
ACC Oxidase Expression (relative) (ACC oxidase; Corn Line B73, 20 μM inducer/1 μM ACC): 0.09506
ACC Oxidase Expression (relative) (ACC oxidase; Corn Line B73, 20 μM inducer/10 μM ACC): 0.2589
AVG ACO Expression (ACC oxidase; 20 μM inducer/0 ACC): 1.087
AVG ACO Expression (ACC oxidase; 20 μM inducer/1 μM ACC): 0.6061
AVG ACO Expression (ACC oxidase; 20 μM inducer/10 μM ACC): 0.5662
average expression of ACC oxidase in the transgenic corn lines (ACC oxidase; presence of inducer plus ACC): repressed
ethylene insensitivity, based on decreased expression of ethylene inducible genes (ACC oxidase; transgenic corn with etr1-1 cassettes, presence of inducing compound, exposed to ethylene): demonstrated ethylene insensitivity
